PubChem BioAssay AID2060897 (Molecular Pharmacology Branch, DTP, NCI, 2025)

System: 966289-007-R4-J1-PDC complex spheroid viability
Experiment: Anticancer human tumor 966289-007-R4-J1-PDC patient-derived pancreatic adenocarcinoma cell line growth inhibition [RAS]
Conditions: for IC50: curve of first compound; for viability, T/C: stronger effect = lower value
Procedure, shortened: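 Multi-cell-type spheroids: tumor cells plus HUVEC endothelial cells and mesenchymal stem cells. RAS-pathway inhibitors were combined with targeted agents, each dosed in half-log steps down from clinical Cmax, or from 10 microM when Cmax was unknown.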

[1] = second compound 0.000949 µM, first compound 0.0316 µM
[2] = second compound 0.000949 µM, first compound 0.1 µM
[3] = second compound 0.000949 µM, first compound 0.316 µM
[4] = second compound 0.000949 µM, first compound 1 µM
[5] = second compound 0.003 µM, first compound 0.0316 µM
[6] = second compound 0.003 µM, first compound 0.1 µM
[7] = second compound 0.003 µM, first compound 0.316 µM
[8] = second compound 0.003 µM, first compound 1 µM
[9] = second compound 0.00949 µM, first compound 0.0316 µM
[10] = second compound 0.00949 µM, first compound 0.1 µM
[11] = second compound 0.00949 µM, first compound 0.316 µM
[12] = second compound 0.00949 µM, first compound 1 µM
[13] = second compound 0.03 µM, first compound 0.0316 µM
[14] = second compound 0.03 µM, first compound 0.1 µM
[15] = second compound 0.03 µM, first compound 0.316 µM
[16] = second compound 0.03 µM, first compound 1 µM
[17] = second compound 0.0949 µM, first compound 0.0316 µM
[18] = second compound 0.0949 µM, first compound 0.1 µM
[19] = second compound 0.0949 µM, first compound 0.316 µM
[20] = second compound 0.0949 µM, first compound 1 µM
[21] = second compound 0.3 µM, first compound 0.0316 µM
[22] = second compound 0.3 µM, first compound 0.1 µM
[23] = second compound 0.3 µM, first compound 0.316 µM
[24] = second compound 0.3 µM, first compound 1 µM
[25] = second compound 0.000949 µM, first compound 3.16 µM
[26] = second compound 0.000949 µM, first compound 10 µM
[27] = second compound 0.003 µM, first compound 3.16 µM
[28] = second compound 0.003 µM, first compound 10 µM
[29] = second compound 0.00949 µM, first compound 3.16 µM
[30] = second compound 0.00949 µM, first compound 10 µM
[31] = second compound 0.03 µM, first compound 3.16 µM
[32] = second compound 0.03 µM, first compound 10 µM
[33] = second compound 0.0949 µM, first compound 3.16 µM
[34] = second compound 0.0949 µM, first compound 10 µM
[35] = second compound 0.3 µM, first compound 3.16 µM
[36] = second compound 0.3 µM, first compound 10 µM
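Further: spheroids exposed to agents for one week before readout.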
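Wherever viability, T/C is given: percent viability relative to DMSO vehicle control wells as 100%.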

CCN1CCN(Cc2ccc(Nc3ncc(F)c(-c4cc(F)c5nc(C)n(C(C)C)c5c4)n3)nc2)CC1 + CCn1c(-c2cc(N3CCN(C)CC3)cnc2C(C)OC)c2c3cc(ccc31)-c1csc(n1)CC(NC(=O)C1CC1C)C(=O)N1CCCC(N1)C(=O)OCC(C)(C)C2
IC50 (second compound 0.000949 µM): > 1 µM | IC50 (second compound 0.003 µM): > 1 µM | IC50 (second compound 0.00949 µM): > 1 µM | IC50 (second compound 0.03 µM): > 1 µM | IC50 (second compound 0.0949 µM): > 1 µM | IC50 (second compound 0.3 µM): > 1 µM | viability, T/C (second compound 0.000949 µM, first compound 0.00316 µM): 122% | viability, T/C (second compound 0.000949 µM, first compound 0.01 µM): 116% | viability, T/C [1]: 130% | viability, T/C [2]: 86.2% | viability, T/C [3]: 92.2% | viability, T/C [4]: 89.8% | viability, T/C (second compound 0.003 µM, first compound 0.00316 µM): 109% | viability, T/C (second compound 0.003 µM, first compound 0.01 µM): 121% | viability, T/C [5]: 112% | viability, T/C [6]: 95.7% | viability, T/C [7]: 114% | viability, T/C [8]: 85% | viability, T/C (second compound 0.00949 µM, first compound 0.00316 µM): 93.9% | viability, T/C (second compound 0.00949 µM, first compound 0.01 µM): 116% | viability, T/C [9]: 120% | viability, T/C [10]: 97.7% | viability, T/C [11]: 98.7% | viability, T/C [12]: 96.7% | viability, T/C (second compound 0.03 µM, first compound 0.00316 µM): 85.3% | viability, T/C (second compound 0.03 µM, first compound 0.01 µM): 105% | viability, T/C [13]: 129% | viability, T/C [14]: 95% | viability, T/C [15]: 97.8% | viability, T/C [16]: 85.1% | viability, T/C (second compound 0.0949 µM, first compound 0.00316 µM): 129% | viability, T/C (second compound 0.0949 µM, first compound 0.01 µM): 100% | viability, T/C [17]: 115% | viability, T/C [18]: 95.9% | viability, T/C [19]: 86.9% | viability, T/C [20]: 88.6% | viability, T/C (second compound 0.3 µM, first compound 0.00316 µM): 101% | viability, T/C (second compound 0.3 µM, first compound 0.01 µM): 89.8% | viability, T/C [21]: 114% | viability, T/C [22]: 111% | viability, T/C [23]: 97.9% | viability, T/C [24]: 79%

Cc1nc(N2CCC3(CC2)COC(C)C3N)c(CO)nc1Sc1ccnc(N)c1Cl (stereo unspecified) + CCn1c(-c2cc(N3CCN(C)CC3)cnc2C(C)OC)c2c3cc(ccc31)-c1csc(n1)CC(NC(=O)C1CC1C)C(=O)N1CCCC(N1)C(=O)OCC(C)(C)C2
IC50 (second compound 0.000949 µM): > 10 µM | IC50 (second compound 0.003 µM): > 10 µM | IC50 (second compound 0.00949 µM): > 10 µM | IC50 (second compound 0.03 µM): > 10 µM | IC50 (second compound 0.0949 µM): > 10 µM | IC50 (second compound 0.3 µM): > 10 µM | viability, T/C [1]: 130% | viability, T/C [2]: 121% | viability, T/C [3]: 107% | viability, T/C [4]: 85.4% | viability, T/C [25]: 93.8% | viability, T/C [26]: 115% | viability, T/C [5]: 114% | viability, T/C [6]: 92.9% | viability, T/C [7]: 94.1% | viability, T/C [8]: 86.7% | viability, T/C [27]: 81.5% | viability, T/C [28]: 97.1% | viability, T/C [9]: 106% | viability, T/C [10]: 99.2% | viability, T/C [11]: 84.4% | viability, T/C [12]: 122% | viability, T/C [29]: 86.1% | viability, T/C [30]: 97.7% | viability, T/C [13]: 87.4% | viability, T/C [14]: 69.8% | viability, T/C [15]: 102% | viability, T/C [16]: 107% | viability, T/C [31]: 79.9% | viability, T/C [32]: 102% | viability, T/C [17]: 75.6% | viability, T/C [18]: 131% | viability, T/C [19]: 86.9% | viability, T/C [20]: 119% | viability, T/C [33]: 113% | viability, T/C [34]: 117% | viability, T/C [21]: 92.3% | viability, T/C [22]: 88.6% | viability, T/C [23]: 110% | viability, T/C [24]: 108% | viability, T/C [35]: 111% | viability, T/C [36]: 103%

NC1c2ccccc2OC12CCN(c1cnc3c(N4CCCc5ncccc54)n[nH]c3n1)CC2 (stereo unspecified) + CCn1c(-c2cc(N3CCN(C)CC3)cnc2C(C)OC)c2c3cc(ccc31)-c1csc(n1)CC(NC(=O)C1CC1C)C(=O)N1CCCC(N1)C(=O)OCC(C)(C)C2
IC50 (second compound 0.000949 µM): > 10 µM | IC50 (second compound 0.003 µM): > 10 µM | IC50 (second compound 0.00949 µM): > 10 µM | IC50 (second compound 0.03 µM): > 10 µM | IC50 (second compound 0.0949 µM): > 10 µM | IC50 (second compound 0.3 µM): > 10 µM | viability, T/C [1]: 88.7% | viability, T/C [2]: 84% | viability, T/C [3]: 117% | viability, T/C [4]: 104% | viability, T/C [25]: 123% | viability, T/C [26]: 85% | viability, T/C [5]: 121% | viability, T/C [6]: 93% | viability, T/C [7]: 88.9% | viability, T/C [8]: 95.2% | viability, T/C [27]: 105% | viability, T/C [28]: 109% | viability, T/C [9]: 106% | viability, T/C [10]: 103% | viability, T/C [11]: 88.5% | viability, T/C [12]: 111% | viability, T/C [29]: 97.1% | viability, T/C [30]: 89.9% | viability, T/C [13]: 78.9% | viability, T/C [14]: 88.8% | viability, T/C [15]: 103% | viability, T/C [16]: 105% | viability, T/C [31]: 119% | viability, T/C [32]: 69.7% | viability, T/C [17]: 103% | viability, T/C [18]: 122% | viability, T/C [19]: 105% | viability, T/C [20]: 117% | viability, T/C [33]: 92.8% | viability, T/C [34]: 88.4% | viability, T/C [21]: 103% | viability, T/C [22]: 88.1% | viability, T/C [23]: 96.8% | viability, T/C [24]: 97.3% | viability, T/C [35]: 91.2% | viability, T/C [36]: 137%
